Earlier results in patent US7625410B2, “Stent device and method” (Boston Scientific Scimed, Inc., priority 2001, dated 2009).

Columns and labels:
[1] = not given; remark: listed apart in the source
[2] = test system: human and rat aortic smooth muscle cells and endothelial cell proliferation

halflife (assumed value used for the estimate of systemic dosage): 12 h
solubility in organic solvents ([1]; chloroform, ethylacetate acetone, and ethanol): soluble
solubility in water ([1]; water): practically insoluble in water
Structure (SMILES): C=CC[C@@H]1/C=C(\C)C[C@H](C)C[C@H](OC)[C@H]2O[C@@](O)(C(=O)C(=O)N3CCCC[C@H]3C(=O)O[C@H](/C(C)=C/[C@@H]3CC[C@@H](O)[C@H](OC)C3)[C@H](C)[C@@H](O)CC1=O)[C@H](C)C[C@@H]2OC [tacrolimus]
distribution in the blood (blood): primarily intracellular in red blood cells
binding in the plasma (plasma): bound to α-1 sour glycoproteins and albumins
antiproliferative properties on vascular cells ([2]; human and rat aortic smooth muscle cells and endothelial cells): very modest antiproliferative properties
transition to the secretory smooth muscle cell type ([2]; smooth muscle cells, type responsible for the restenosis build up): practically totally inhibited
